Measurements published in patent publication US20260232597A1, “PHARMACEUTICAL COMPOSITION OF TRAMETINIB AND PROCESS OF PREPARATION THEREOF” (ALEMBIC PHARMACEUTICALS LIMITED, priority 2023, published 2026).
In brackets after ≈: the same amount, converted by molar mass. Blank lines part the entries; values can stand above or below the compound they belong to.

Tests used:
[1] = Dissolution studies for Example 2 (TA0 to TA14); assay type: physicochemical; conditions: 4.5 Acetate Buffer + 0.75% SLS, Type II, 500 mL, 60 RPM
[2] = Saturation solubility of drug substance in different dissolution media (incubator shaker, 24 hrs, HPLC); assay type: physicochemical; conditions: 37° C.; for solubility at 24 h: thermodynamic from solid
Experimental: Solubility study of drug substance was carried out in different dissolution media. The saturated solutions of drug substance were prepared in the recommended dissolution media. Initial pH of the saturated solutions was noted. Then the solutions were allowed to shake for 24 hours in the incubator shaker at 150 RPM. The temperature was kept around 37° C.±0.5° C. After 24 hours of shaking, pH of saturated solutions was noted. Further dilutions of these solutions were made as per the standard concentration. Analysis was carried out using HPLC technique. The sample was prepared in triplicates for saturation solubility determination.

[3] = cited from earlier work
[4] = as disclosed in US'304 patent; cited from earlier work
[5] = pH 4.5 Acetate Buffer + 0.75% SDS
[6] = pH 6.8 Phosphate Buffer + 0.75% SDS
[7] = pH 7.0 Phosphate Buffer + 0.75% SDS

% DR ([1]; 5 mins): 2%
% DR ([1]; 10 mins): 3%
% DR ([1]; 15 mins): 5%
% DR ([1]; 20 mins): 7%
% DR ([1]; 30 mins): 9%
% DR ([1]; 45 mins): 13%
% DR ([1]; 60 mins): 16%
% DR ([1]; 90 mins): 23%
% DR ([1]; 120 mins): 29%
Structure (SMILES): CC(=O)Nc1cccc(-n2c(=O)n(C3CC3)c(=O)c3c(Nc4ccc(I)cc4F)n(C)c(=O)c(C)c32)c1.CC(=O)O [TA2, Trametinib acetic acid solvate]

Average solubility ([2]; 0.1N HCl + 0.75% SDS): 50 µg/mL
Solubility mg/250 mL ([2]; 0.1N HCl + 0.75% SDS): 11.7 mg/250 mL
Solubility mg/500 mL ([2]; 0.1N HCl + 0.75% SDS): 23 mg/500 mL
Solubility mg/900 mL ([2]; 0.1N HCl + 0.75% SDS): 42 mg/900 mL
Solubility mg/250 mL ([2]; 0.1N HCl): 0.8 mg/250 mL
Solubility mg/500 mL ([2]; 0.1N HCl): 2 mg/500 mL
Solubility mg/900 mL ([2]; 0.1N HCl): 3 mg/900 mL
Average solubility [2, 5]: 240 µg/mL
Solubility mg/250 mL [2, 5]: 60.0 mg/250 mL
Solubility mg/500 mL [2, 5]: 120 mg/500 mL
Solubility mg/900 mL [2, 5]: 216 mg/900 mL
Solubility mg/250 mL ([2]; pH 4.5 Acetate Buffer): 0.0 mg/250 mL
Solubility mg/500 mL ([2]; pH 4.5 Acetate Buffer): 0 mg/500 mL
Solubility mg/900 mL ([2]; pH 4.5 Acetate Buffer): 0 mg/900 mL
Average solubility [2, 6]: 70 µg/mL
Solubility mg/250 mL [2, 6]: 18.3 mg/250 mL
Solubility mg/500 mL [2, 6]: 37 mg/500 mL
Solubility mg/900 mL [2, 6]: 66 mg/900 mL
Solubility mg/250 mL ([2]; pH 6.8 Phosphate Buffer): 0.0 mg/250 mL
Solubility mg/500 mL ([2]; pH 6.8 Phosphate Buffer): 0 mg/500 mL
Solubility mg/900 mL ([2]; pH 6.8 Phosphate Buffer): 0 mg/900 mL
Average solubility [2, 7]: 70 µg/mL
Solubility mg/250 mL [2, 7]: 18.3 mg/250 mL
Solubility mg/500 mL [2, 7]: 37 mg/500 mL
Solubility mg/900 mL [2, 7]: 66 mg/900 mL
Solubility mg/250 mL ([2]; pH 7.0 Phosphate Buffer): 0.0 mg/250 mL
Solubility mg/500 mL ([2]; pH 7.0 Phosphate Buffer): 0 mg/500 mL
Solubility mg/900 mL ([2]; pH 7.0 Phosphate Buffer): 0 mg/900 mL
% DR ([1]; 5 mins): 27%
% DR ([1]; 10 mins): 34%
% DR ([1]; 15 mins): 38%
% DR ([1]; 20 mins): 39%
% DR ([1]; 30 mins): 41%
% DR ([1]; 45 mins): 42%
% DR ([1]; 60 mins): 43%
% DR ([1]; 90 mins): 44%
% DR ([1]; 120 mins): 44%
Structure (SMILES): CC(=O)Nc1cccc(-n2c(=O)n(C3CC3)c(=O)c3c(Nc4ccc(I)cc4F)n(C)c(=O)c(C)c32)c1.C[S+](C)[O-] [Trametinib DMSO, Trametinib dimethyl sulfoxide]
Solubility in aqueous media ([3]; pH range of 2 to 8): practically insoluble

Solubility mg/250 mL ([2]; 0.1N HCl + 0.75% SDS): 17 mg/250 mL
Solubility mg/500 mL ([2]; 0.1N HCl + 0.75% SDS): 33 mg/500 mL
Solubility mg/900 mL ([2]; 0.1N HCl + 0.75% SDS): 60 mg/900 mL
Solubility mg/250 mL ([2]; 0.1N HCl): 4.2 mg/250 mL
Solubility mg/500 mL ([2]; 0.1N HCl): 8 mg/500 mL
Solubility mg/900 mL ([2]; 0.1N HCl): 15 mg/900 mL
solubility at 24 h ([2]; aqueous buffer, pH 4.5 Acetate Buffer): 10 µg/mL (≈ 16.2 µM)
solubility at 24 h ([2]; aqueous buffer, pH 6.8 Phosphate Buffer): 20 µg/mL (≈ 32.5 µM)
solubility at 24 h ([2]; aqueous with cosolvent or surfactant or cyclodextrin, 0.1N HCl + 0.75% SDS): 70 µg/mL
solubility at 24 h ([2]; aqueous with cosolvent or surfactant or cyclodextrin, pH 4.5 Acetate Buffer + 0.75% SDS): 100 µg/mL
solubility at 24 h ([2]; aqueous with cosolvent or surfactant or cyclodextrin, pH 6.8 Phosphate Buffer + 0.75% SDS): 10 µg/mL
solubility at 24 h ([2]; aqueous with cosolvent or surfactant or cyclodextrin, pH 7.0 Phosphate Buffer + 0.75% SDS): 10 µg/mL
Solubility mg/250 mL [2, 5]: 24 mg/250 mL
Solubility mg/500 mL [2, 5]: 48 mg/500 mL
Solubility mg/900 mL [2, 5]: 87 mg/900 mL
Solubility mg/250 mL ([2]; pH 4.5 Acetate Buffer): 2.5 mg/250 mL
Solubility mg/500 mL ([2]; pH 4.5 Acetate Buffer): 5 mg/500 mL
Solubility mg/900 mL ([2]; pH 4.5 Acetate Buffer): 9 mg/900 mL
Solubility mg/250 mL [2, 6]: 3 mg/250 mL
Solubility mg/500 mL [2, 6]: 5 mg/500 mL
Solubility mg/900 mL [2, 6]: 9 mg/900 mL
Solubility mg/250 mL ([2]; pH 6.8 Phosphate Buffer): 4.2 mg/250 mL
Solubility mg/500 mL ([2]; pH 6.8 Phosphate Buffer): 8 mg/500 mL
Solubility mg/900 mL ([2]; pH 6.8 Phosphate Buffer): 15 mg/900 mL
Solubility mg/250 mL [2, 7]: 3 mg/250 mL
Solubility mg/500 mL [2, 7]: 5 mg/500 mL
Solubility mg/900 mL [2, 7]: 9 mg/900 mL
Solubility mg/250 mL ([2]; pH 7.0 Phosphate Buffer): 0.0 mg/250 mL
Solubility mg/500 mL ([2]; pH 7.0 Phosphate Buffer): 0 mg/500 mL
Solubility mg/900 mL ([2]; pH 7.0 Phosphate Buffer): 0 mg/900 mL
solubility at 24 h ([2]; simulated gastric fluid, 0.1N HCl): 20 µg/mL (≈ 32.5 µM)
% DR ([1]; 5 mins): 9%
% DR ([1]; 10 mins): 11%
% DR ([1]; 15 mins): 12%
% DR ([1]; 20 mins): 13%
% DR ([1]; 30 mins): 14%
% DR ([1]; 45 mins): 16%
% DR ([1]; 60 mins): 17%
% DR ([1]; 90 mins): 19%
% DR ([1]; 120 mins): 21%
Structure (SMILES): CC(=O)Nc1cccc(-n2c(=O)n(C3CC3)c(=O)c3c(Nc4ccc(I)cc4F)n(C)c(=O)c(C)c32)c1 [Trametinib, N-(3-{3-Cyclopropyl-5-[(2-fluoro-4-iodophenyl)amino]-6,8-dimethyl-2,4,7-trioxo-3,4,6,7-tetrahydropyrido[4,3-d]pyrimidin-1 (2H)-yl}phenyl) acetamide]
Solubility relative to dimethyl sulfoxide solvate ([3]; as disclosed in US'304 patent): much less soluble than dimethyl sulfoxide solvate of Trametinib
Exposure and absorption upon in vivo administration [4]: poor exposure and absorption
